Measurements reported in patent US7795241B2, “Derivative prodrugs of ethinyl estradiol” (Warner Chilcott Company, LLC, priority 2005, dated 2010).

Experiments:
[1] = Stability at 40° C./75% RH, prodrug assayed for degradation to ethinyl estradiol (HPLC); assay type: physicochemical; details: prodrug remaining; for Assay T = 2 W: 2 weeks; for Assay T = 0: T = 0 months; for Assay T = 1 M: 1 month; for Assay T = 6 M: 6 months
Description: Solubility was performed in water. […] The time-points for stability were T=0 months, T=2 weeks, T=1 month, T=3 months and T=6 months.
The following outlines the conditions utilized for analysis of this prodrug. Analysis was conducted using High-Performance Liquid Chromatography (HPLC).
The following outlines the conditions utilized for analysis of this prodrug. Analysis was conducted using HPLC.
The following outlines the conditions utilized for analysis of the prodrug. Analysis was conducted using HPLC.

[2] = Hydrolysis to the parent drug ethinyl estradiol (0.5N NaOH, HPLC quantification); assay type: physicochemical; details: 5 min, prodrug solution + water + 0.5N NaOH
Description: Hydrolysis studies refer to the rate of hydrolysis to the parent drug, ethinyl estradiol. Hydrolysis was conducted in the following manner: • (1) 1 mL of a solution containing the prodrug, 2.8 mL of water and 0.1 mL of 0.5N NaOH were combined; • (2) the resulting solution was vortexed for 10 seconds; • (3) the mixture was then left to stand for specific time intervals (e.g., 5 minutes, 15 minutes, etc.); • (4) the mixture was then neutralized with 0.1 mL of a buffer; and • (5) the solutions were finally injected to quantify the disappearance of the prodrug and the formation of the parent compound.

[3] = listed as ethinyl estradiol acetoxy acetate
[4] = listed as ethinyl estradiol lactate acetate

| Assay T = 0 [1] | Hydrolysis (to ethinyl estradiol) [2, 4] | Assay T = 3 M ([1]; 3 months) | Assay T = 6 M [1] | Assay T = 6 M [1, 4] | Compound | Assay T = 2 W [1] | Hydrolysis (to ethinyl estradiol) [2] | Hydrolysis (to ethinyl estradiol) [2, 3] | Assay T = 1 M [1] | Assay T = 1 M [1, 3] |
| --- | --- | --- | --- | --- | --- | --- | --- | --- | --- | --- |
| 97.2% | – | – | – | – | C#CC1(O)CC[C@H]2[C@@H]3CCc4cc(OC(=O)[C@@H]5CCCN5C(C)=O)ccc4[C@H]3CC[C@@]21C (stereo partly drawn) [Ethinyl Estradiol N-Acetyl Prolinate, ethinyl estradiol N-acetyl proline] | 96.6% | – | – | – | – |
| 94.43% | 100% | 95.91% | 95.89% | 95.9% | ethinyl estradiol lactate-acetate | – | 100% (5 min) | – | 93.67% | – |

| Compound | Assay T = 0 [1] | Hydrolysis (to ethinyl estradiol) [2, 4] | Assay T = 3 M ([1]; 3 months) | Assay T = 6 M [1] | Assay T = 6 M [1, 4] | Assay T = 2 W [1] | Hydrolysis (to ethinyl estradiol) [2] | Hydrolysis (to ethinyl estradiol) [2, 3] | Assay T = 1 M [1] | Assay T = 1 M [1, 3] |
| --- | --- | --- | --- | --- | --- | --- | --- | --- | --- | --- |
| ethinyl estradiol acetoxy acetate | 97.8% | – | – | – | – | 97.2% | 100% (5 min) | 100% | 97.0% | 97% |
